Assay results: US20020082291A1, “NEW USE OF TAXOID DERIVATIVES” (priority 1999, published 2002)

Test system: mammary adenocarcinoma MA17/A
Assay: Oral antitumor efficacy and toxicity against early stage mammary adenocarcinoma MA17/A grafted subcutaneously in mice
Format: in vivo
Settings: for log cell kill: tumor doubling time 1.3 days
Description: Formulation II: 0.2 mg/ml of the compound of formula (la) was mixed in a solution comprising 5% ethanol, 5% Polysorbate 80, and 90% of an aqueous 5% glucose solution.
15 female C3H/HeN mice, each weighing approximately 20 g, were each administered Formulation II orally in a dose of 20.6 mg.kg^−1 per administration per mouse,12.8, 8.4 and 5.5 each day for 5 days.
Animals: The animals subjected to the experiment, generally mice, were subcutaneously grafted bilaterally with 30 to 60 mg of a mammary tumor fragment (adenocarcinoma MA17/A) on day 0. The animals bearing tumors were mixed before being assigned to the various treatment and control groups. Chemotherapy generally began from 3 to 7 days after grafting, depending on the type of tumour, and the animals were observed every day. The different animal groups were weighed 3 or 4 times a week until the maximum weight loss was attained, and the groups were then weighed at least once a week until the end of the trial.
Efficacy: The efficacy of the new pharmaceutical form was evaluated by:
the tumor growth inhibitor (T/C)
The T/C value in percent is an indication of antitumor effectiveness: [formula]
According to NCI standards, a T/C<42% is the minimal level to declare activity. A T/C<10% is considered to indicate high antitumor activity and is the level used by NCI to justify further development (Decision Network-2 level, DN-2).
The T/C value can be converted to an arbitrary activity rating according to the NCI criteria:
and quantified by the log cell kill which is determined by the following formula:
log10 cells killed=T−C(days)/3.32×Td
in which T−C represents the time in days for the tumors of the treated group (T) and the tumors of the non-treated group (C) to reach a predetermined value (750 mg for example). This method is described in T. H. CORBETT et al., Cancer, 40, 2660-2680 (1977); F.M. SCHABEL et al., Cancer Drug Development, Part B. Methods in Cancer Research, 17, 3-51, New York Academic Press Inc. (1979), the disclosure of which is incorporated by reference herein. A product is considered to be active if log10 cells killed is greater than or equal to 0.7. A product is considered to be very active if log10 cells killed is greater than 2.8.

[1] = p.o. 5.5 mg/kg/dose, days 3 to 7, total dose 27.5 mg/kg
[2] = p.o. 8.4 mg/kg/dose, days 3 to 7, total dose 42.0 mg/kg
[3] = p.o. 12.8 mg/kg/dose, days 3 to 7, total dose 64.0 mg/kg

Compound: CO[C@H]1C(=O)[C@]2(C)[C@@H](OC)C[C@H]3OC[C@@]3(OC(C)=O)[C@H]2[C@H](OC(=O)c2ccccc2)[C@]2(O)C[C@H](OC(=O)[C@H](O)[C@@H](NC(=O)OC(C)(C)C)c3ccccc3)C(C)=C1C2(C)C [Product of formula IA, 4α-acetoxy-2α-benzoyloxy-5β,20-epoxy-1β-hydroxy-7β,10β-dimethoxy-9-oxo-11-taxen-13α-yl (2R, 3S)-3tert-butoxycarbonylamino-2-hydroxy-3-phenylpropionate]
- Comments [1]: Inactive
- Drug death (days or death) [1]: 0/5
- T-C [1]: 2.3 days
- Time for median tumor to reach 750 mg [1]: 14.4 days
- Average body weight change in % per mouse post last treatment (day) (p.o. 5.5 mg/kg/dose, days 3 to 7, total dose 27.5 mg/kg, day 8): +0.2(8) %
- Median tumor weight in mg on day 12 (range) [1]: 271(107-432) mg
- T/C in % day 12 [1]: 38%
- log cell kill [1]: 0.5
- Comments [2]: Active
- Drug death (days or death) [2]: 0/5
- T-C [2]: 6.1 days
- Time for median tumor to reach 750 mg [2]: 18.2 days
- Average body weight change in % per mouse post last treatment (day) (p.o. 8.4 mg/kg/dose, days 3 to 7, total dose 42.0 mg/kg, day 9): −11.0(9) %
- Median tumor weight in mg on day 12 (range) [2]: 0(0-268) mg
- T/C in % day 12 [2]: 0%
- log cell kill [2]: 1.4
- Comments [3]: HNTD
- Drug death (days or death) [3]: 0/5
- T-C [3]: 13.8 days
- Time for median tumor to reach 750 mg [3]: 25.9 days
- Average body weight change in % per mouse post last treatment (day) (p.o. 12.8 mg/kg/dose, days 3 to 7, total dose 64.0 mg/kg, day 10): −17.9(10) %
- Median tumor weight in mg on day 12 (range) [3]: 0(0-0) mg
- T/C in % day 12 [3]: 0%
- log cell kill [3]: 3.2
- Comments (p.o. 20.6 mg/kg/dose, days 3 to 7, total dose 103.0 mg/kg): Toxic
- Drug death (days or death) (p.o. 0.2 ml, 20.6 mg/kg/dose, days 3 to 7, total dose 103.0 mg/kg, female C3H/HeN mice): 5/5(7,2d8,10,11)
